Reference: US7981882B2, “6-N-linked heterocycle-substituted 2,3,4,5-tetrahydro-1H-benzo[d]azepines as 5-HT2C receptor agonists” (Eli Lilly and Company, priority 2005, dated 2011)

Key:
male NIH Swiss mice [1] = settings: cited from earlier work
Wistar rats [2] = settings: cited from earlier work
male NIH Swiss mice [3] = assay: Marble burying assay; format: in vivo, mouse; settings: 30 min test, rotorod before
Excerpt: Marble burying in mice has been used to model anxiety disorders including obsessive-compulsive disorders (OCD) due to ethological study of the behavior (e.g. Gyertyan I. “Analysis of the marble burying response: Marbles serve to measure digging rather than evoke burying”, Behavioural Pharmacology 6: 24-31, (1995)) and due to the pharmacological effects of clinical standards (c.f., Njung'E K. Handley S L. “Evaluation of marble-burying behavior as a model of anxiety”, Pharmacology, Biochemistry & Behavior. 38: 63-67, (1991)); Borsini F., Podhoma J., and Marazziti, D. “Do animal models of anxiety predict anxiolytic effects of antidepressants?”, Psychopharmacology 163: 121-141, (2002)).
House experimentally-naïve male, NIH Swiss mice (Harlan Sprague-Dawley, Indianapolis, Ind.) weighing between 28-35 g in groups of 12 for at least three days prior to testing in a vivarium with 12 h light and dark cycles. Conduct experiments during the light cycle in a dimly lit experimental testing room. Dose mice with vehicle or test compound and, after a specified pretreatment interval (generally 30 min.), place each mouse individually on a rotorod (Ugo Basile 7650) operating at a speed of 6 revolutions/min. and observe for falling. […]
Clinically effective standard compounds suppress marble burying at doses that are devoid of motor-impairing effects as measured on the rotorod. […]

Wistar rats [4] = assay: Schedule-induced polydipsia; format: in vivo, rat
Excerpt: Schedule-Induced Polydipsia
Food-deprived rats exposed to intermittent presentations of food will drink amounts of water that are far in excess of their normal daily intake and in excess of their intake when given all of their food at one time (Falk J L. “Production of polydipsia in normal rats by an intermittent food schedule”, Science 133: 195-196, (1961)). This excessive behavior is persistent and has been used to model OCD.
Maintain Wistar rats on a food restricted diet (to maintain 85% free feeding weight), but with free access to water. Train the rats in a behavioral testing chamber to press a lever to receive a food pellet under a fixed interval schedule, such that the rats are rewarded with a 45 mg food pellet the first time they press a lever after a 120 second interval has elapsed. The fixed interval is then reset to 120 seconds and the process repeated. Thus, during a 90 min. test session, the rats can earn a maximum of 45 pellets. The behavioral chamber is also equipped with a water bottle that is weighed before and after the session to determine the amount of water consumed.
Administer test compounds on Tuesdays and Fridays. […] Compare the rates of lever pressing and water consumption for each animal's performance during sessions after test compound treatment with that animal's performance during control sessions, expressed as a percent of the control rate. […]

male NIH Swiss mice [5] = assay: Nestlet shredding; format: in vivo, mouse; settings: 30 min test
Excerpt: Mice naturally will construct nests of material available in their living environment. Since this behavior is obsessive in nature, it has been used to model OCD (Xia Li, Denise Morrow and Jeffrey M. Witkin, “Decreases in nestlet shredding of mice by serotonin uptake inhibitors: comparison with marble burying”, Psychopharmacology, submitted Jul. 14, 2003). House experimentally-naïve male, NIH Swiss mice (Harlan Sprague-Dawley, Indianapolis, Ind.) weighing between 28-35 g in groups of 12 for at least three days prior to testing in a vivarium with a 12 h light/dark cycle. Conduct experiments during the light cycle in an experimental room with normal overhead fluorescent lighting. Dose mice with vehicle or test compound and after a specified pretreatment interval (generally 30 min.), place the mice individually in a 17×28×12 cm high plastic tub with about 5 mm sawdust shavings on the floor along with a pre-weighed multi-ply gauze pad (51 mm square). After 30 min., weigh the remainder of the gauze pad not removed by the mouse. Determine the weight of the gauze used for nestlet construction by subtraction. Compare the results for test compound treated mice to the results for vehicle control treated mice with Dunnett's test.
Clinically effective OCD treatment standard compounds suppress nestlet shredding at doses that are devoid of motor-impairing effects as measured by the rotorod test. […]

In the case of `CNCCC(Oc1ccc(C(F)(F)F)cc1)c1ccccc1` (stereo not shown) [fluoxetine], the “Marble burying (clinical standards, literature)” value (male NIH Swiss mice [1]) is listed as “decrease burying” and the “Schedule-induced polydipsia (clinically effective OCD treatment standards)” value (Wistar rats [2]) is listed as “suppress schedule-induced polydipsia without producing notable changes in motor patterns, food intake, or behavior the following day”.
With `CN(C)CCCN1c2ccccc2Sc2ccc(Cl)cc21` [chlorpromazine] the “Marble burying behavior (with rotorod performance)” value (male NIH Swiss mice [3]) was “decrease marble burying only at doses that also disrupt rotorod performance”.
For `CN(C)CCCN1c2ccccc2CCc2ccc(Cl)cc21` [chlomipramine], the “Schedule-induced polydipsia (clinically effective OCD treatment standards)” value (Wistar rats [2]) is given as “suppress schedule-induced polydipsia without producing notable changes in motor patterns, food intake, or behavior the following day”.
With `C[C@H](N)Cc1ccccc1` [d-amphetamine] the “Suppression of excessive drinking with co-administration of 5-HT2C antagonist” value (Wistar rats [4]) was “not prevented by the 5HT2C receptor antagonist”, the “Schedule-induced polydipsia (excessive drinking)” value (Wistar rats [4]; 90 min session) was “decreases excessive drinking only at behaviorally stimulating doses” and the “Nestlet shredding (with motor effects)” value (male NIH Swiss mice [5]) was “decreases nestlet shredding only at doses that produce motoric side effects”.
